In patent publication US20100076194A1, “SUBSTITUTED 3-AMINO-1-OXO OR THIOXO-1,2,5,6,7,8-HEXAHYDRO-2,7-NAPHTHYRIDINE-4-CARBONITRILES ARE SELECTIVE ALPHA 2B ANTAGONISTS” (ALLERGAN, INC., priority 2008, published 2010):
Where two headings read alike, the source gives them in different places.

Legend:
human alpha 2A receptor = target: T1, human alpha 2A receptor (Homo sapiens, UniProt P08913); experiment: FLIPR Ca+2 influx antagonist assay, alpha 2A; type: cell-based; details: HEK 293 cells, Gqi5; for % Antagonism Alpha 2A: value in parentheses; for IC50: antagonism of norepinephrine calcium signal
T1 construct: expressed in transfected cells; host or cells: HEK 293
T1 sequence (P08913 1-465): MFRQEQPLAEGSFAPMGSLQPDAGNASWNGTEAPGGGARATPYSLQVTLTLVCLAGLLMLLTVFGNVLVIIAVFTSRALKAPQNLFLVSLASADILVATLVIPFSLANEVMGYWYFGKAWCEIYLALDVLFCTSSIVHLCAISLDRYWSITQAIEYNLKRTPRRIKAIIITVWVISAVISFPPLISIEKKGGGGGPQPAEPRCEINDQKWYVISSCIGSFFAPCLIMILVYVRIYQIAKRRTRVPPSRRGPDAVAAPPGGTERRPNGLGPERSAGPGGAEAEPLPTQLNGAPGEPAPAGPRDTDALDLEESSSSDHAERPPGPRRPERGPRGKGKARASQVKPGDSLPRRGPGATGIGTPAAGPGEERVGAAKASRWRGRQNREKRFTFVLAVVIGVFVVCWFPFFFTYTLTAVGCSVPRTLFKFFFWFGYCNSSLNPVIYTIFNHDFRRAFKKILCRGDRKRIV
Description: (§1) HEK 293 cells stably expressing the human alpha 2A receptor and the chimeric G protein Gqi5, the mouse alpha2B receptor and the G protein G16, and the human alpha 2C receptor and the chimeric G protein Gqi5 are plated in poly-D-lysine coated 96-well plates at 50,000-75,000 cells per well and grown overnight in DMEM supplemented with 10% fetal bovine serum. For FLIPR (fluorometric image plate reader) evaluation, cells are washed twice with HBSS/HEPES Buffer (1× Hanks Buffered Salt Solution, 20 mM HEPES, pH 7.4) prior to the addition of Fluo-4-AM (4 uM Fluo-4-AM, 0.04% pluronic acid in HBSS/HEPES Buffer), a calcium-sensitive dye. Cells are loaded with dye for 60 minutes at 37° C., then washed 4 times with HBSS/HEPES Buffer. For both the agonist and antagonist assay, the test compounds are tested between 0.64 nM-10,000 nM.
(§2) However, the antagonist blocks the transient calcium signal of the standard agonist norepinephrine in a dose-dependent manner. The residual norepinephrine peak height is compared to the non-antagonized norepinephrine peak height for the determination of % antagonism.

[1] = target: T2, Alpha 1A adrenergic receptor (Homo sapiens, UniProt P35348); experiment: FLIPR Ca+2 influx antagonist assay, alpha 1A; type: cell-based; details: for % Antagonism Alpha 1A: value in parentheses, vs norepinephrine peak height
T2 sequence (P35348 1-466): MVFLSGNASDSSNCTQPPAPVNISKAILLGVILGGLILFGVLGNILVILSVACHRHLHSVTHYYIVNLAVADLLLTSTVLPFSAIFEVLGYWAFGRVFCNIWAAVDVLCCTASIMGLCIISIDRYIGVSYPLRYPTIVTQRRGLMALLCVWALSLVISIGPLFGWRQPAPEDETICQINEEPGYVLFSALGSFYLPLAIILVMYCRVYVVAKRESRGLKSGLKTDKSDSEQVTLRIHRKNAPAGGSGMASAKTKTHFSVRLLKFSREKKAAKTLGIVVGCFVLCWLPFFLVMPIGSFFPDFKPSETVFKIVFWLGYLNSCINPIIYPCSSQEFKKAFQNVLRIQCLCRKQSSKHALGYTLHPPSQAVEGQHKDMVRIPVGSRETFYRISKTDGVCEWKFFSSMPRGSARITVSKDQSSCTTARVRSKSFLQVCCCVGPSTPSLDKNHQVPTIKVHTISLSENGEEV

mouse alpha2B receptor = target: T3, mouse alpha2B receptor (Mus musculus, UniProt P30545); experiment: FLIPR Ca+2 influx antagonist assay, alpha 2B; type: cell-based; details: for % Antagonism Alpha 2B: value in parentheses
T3 construct: expressed in transfected cells; host or cells: HEK 293
T3 sequence (P30545 1-453): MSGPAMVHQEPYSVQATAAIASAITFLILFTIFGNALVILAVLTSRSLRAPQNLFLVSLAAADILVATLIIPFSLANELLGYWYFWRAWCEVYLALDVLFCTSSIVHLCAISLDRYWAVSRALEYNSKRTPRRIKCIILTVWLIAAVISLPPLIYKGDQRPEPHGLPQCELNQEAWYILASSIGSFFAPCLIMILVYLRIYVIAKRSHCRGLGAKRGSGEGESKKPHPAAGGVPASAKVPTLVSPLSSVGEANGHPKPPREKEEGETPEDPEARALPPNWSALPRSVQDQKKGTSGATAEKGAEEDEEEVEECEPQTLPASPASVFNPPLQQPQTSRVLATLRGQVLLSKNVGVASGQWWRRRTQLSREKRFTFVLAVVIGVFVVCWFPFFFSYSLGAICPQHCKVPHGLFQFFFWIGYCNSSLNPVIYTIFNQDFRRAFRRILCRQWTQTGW
Description: as §1, §2

human alpha 2C receptor = target: T4, human alpha 2C receptor (Homo sapiens, UniProt P18825); experiment: FLIPR Ca+2 influx antagonist assay, alpha 2C; type: cell-based; details: HEK 293 cells, Gqi5; for % Antagonism Alpha 2C: value in parentheses
T4 construct: expressed in transfected cells; host or cells: HEK 293
T4 sequence (P18825 1-462): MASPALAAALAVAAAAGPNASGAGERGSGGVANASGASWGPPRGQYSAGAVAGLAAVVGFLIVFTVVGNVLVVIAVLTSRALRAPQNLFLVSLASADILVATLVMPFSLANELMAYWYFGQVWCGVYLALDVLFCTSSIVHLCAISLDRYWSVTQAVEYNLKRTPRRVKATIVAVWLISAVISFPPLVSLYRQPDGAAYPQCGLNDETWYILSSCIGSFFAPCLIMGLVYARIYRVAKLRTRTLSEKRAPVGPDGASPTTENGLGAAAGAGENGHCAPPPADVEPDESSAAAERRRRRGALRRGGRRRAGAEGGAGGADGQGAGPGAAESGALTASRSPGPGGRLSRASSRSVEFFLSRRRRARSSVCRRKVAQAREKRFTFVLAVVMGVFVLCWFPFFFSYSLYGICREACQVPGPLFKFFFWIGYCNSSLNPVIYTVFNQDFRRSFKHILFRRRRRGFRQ
Description: as §1, §2

[2] = target: T5, Alpha 1B adrenergic receptor (Homo sapiens, UniProt P35368); experiment: FLIPR Ca+2 influx antagonist assay, alpha 1B; type: cell-based; details: for % Antagonism Alpha 1B: value in parentheses, vs norepinephrine peak height
T5 sequence (P35368 1-520): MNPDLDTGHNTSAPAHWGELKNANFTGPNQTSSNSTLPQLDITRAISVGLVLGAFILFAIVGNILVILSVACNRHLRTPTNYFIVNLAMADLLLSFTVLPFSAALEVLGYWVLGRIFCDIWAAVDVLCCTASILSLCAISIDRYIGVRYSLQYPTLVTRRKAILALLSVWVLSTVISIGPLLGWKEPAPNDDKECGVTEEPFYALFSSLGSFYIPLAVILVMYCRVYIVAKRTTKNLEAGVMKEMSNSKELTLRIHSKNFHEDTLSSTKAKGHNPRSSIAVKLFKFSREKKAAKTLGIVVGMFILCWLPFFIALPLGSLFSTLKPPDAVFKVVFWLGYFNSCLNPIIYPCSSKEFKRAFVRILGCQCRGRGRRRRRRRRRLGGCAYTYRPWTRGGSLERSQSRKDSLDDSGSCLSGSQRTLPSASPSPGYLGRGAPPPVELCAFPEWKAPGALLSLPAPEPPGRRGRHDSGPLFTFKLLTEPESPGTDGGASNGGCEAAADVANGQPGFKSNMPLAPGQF

mechanical allodynia = experiment: Chung rat nerve ligation model of neuropathic pain (mechanical allodynia); type: in vivo; details: co-administered IP at 100 ug/kg each, 30 minutes post drug, FIG. 1A
Description: The Chung model is a surgical model of neuropathic pain in rats. The pain state is generated by tight ligation of the L5 and L6 spinal nerves on one side of the rat. The surgical procedure results in a long-lasting mechanical allodynia in the affected foot. Mechanical allodynia is measured using von Frey filaments, where the investigator stimulates the plantar surface of the affected foot. Different sized filaments generate a different force. A painful response is signified by withdrawal of the paw.
Mechanical allodynia is measured at 30 minutes post drug and is reported as the percentage response to the baseline reading taken pre-drug administration.
The lack of allodynial reversal in these rats is also a measure of antagonist ability to block a response.

[3] = HEK 293 cells, G16, antagonism of norepinephrine calcium signal, read-out: IC50 Alpha 2B

Structure (SMILES)	% Antagonism Alpha 2A (human alpha 2A receptor)	IC50 ([1]; antagonism of norepinephrine calcium signal, read-out: IC50 Alpha 1A) [µM]	% Antagonism Alpha 1A [1]	IC50 (mouse alpha2B receptor; [3]) [µM]	% Antagonism Alpha 2B (mouse alpha2B receptor; HEK 293 cells, G16) [%]	IC50 (human alpha 2C receptor; antagonism of norepinephrine calcium signal) [µM]	% Antagonism Alpha 2C (human alpha 2C receptor)	IC50 ([2]; antagonism of norepinephrine calcium signal, read-out: IC50 Alpha 1B) [µM]	% Antagonism Alpha 1B [2] [%]	IC50 (human alpha 2A receptor) [µM]	IC50 (mouse alpha2B receptor) [µM]	block of allodynia reversal by 4-Cyclopent-3-enylmethyl-1,3-dihydro-imidazole-2-thione (mechanical allodynia)	IC50 [2] [µM]	IC50 [1] [µM]
CN1CCc2c(C#N)c(N)n(N)c(=S)c2C1 [Example 6, 2,3-diamino-4-cyano-7-methyl-(1,2,5,6,7,8-hexahydro-2,7-napthyridine-1-thione)]	nd (36) %	> 7.5	19%	0.204	112	1.41	29%	> 7.5	19					
CN1CCc2c(C#N)c(N)n(C)c(=O)c2C1 [Example 9, 3-Amino-2-methyl-4-cyano-7-methyl-(1,2,5,6,7,8-hexahydro-2,7-napthyridine-1-ketone)]				1.17	88									
CCn1c(N)c(C#N)c2c(c1=S)CN(C)CC2 [Example 8, 3-Amino-2-ethyl-4-cyano-7-methyl-(1,2,5,6,7,8-hexahydro-2,7-napthyridine-1-thione)]				0.473	95									
CN1CCc2c(C#N)c(N)n(C)c(=S)c2C1 [Example 5, 3-amino-2,7-dimethyl-1-thioxo-1,2,5,6,7,8-hexahydro-2,7-naphthyridine-4-carbonitrile]	69%		nd (64) %		95		nd (25) %		0	1.99	0.01	completely blocks	> 8.3	
Cn1c(N)c(C#N)c2c(c1=S)CNCC2 [Example 4, 3-amino-2-methyl-1-thioxo-1,2,5,6,7,8-hexahydro-2,7-naphthyridine-4-carbonitrile]				0.342	93									
CN1Cc2c(c(C#N)c(N)n(N)c2=S)CC1(C)C [Example 7, 2,3-diamino-4-cyano-6,6,7-trimethyl-(1,2,5,6,7,8-hexahydro-2,7-napthyridine-1-thione)]	0%		98%		97		nd (17) %		16	> 7.5	0.029		> 7.5	0.382
